This data set relates to Hepatotoxicity. In words: Literature-mined public compounds from Greene et al multi-species hepatotoxicity modelling dataset.

Numbered stars: 1 amine (or outer) side, 2 acyl side, 3 side chain; on linkers, the order of the positions; unused ones are H or OH. Bridge positions count the residues as written; N and C are the ends. Square brackets hold non-standard residues; d marks the D form. Peptide text beside a SMILES is read from it. I, II: the chains in the order shown. * marks the point of attachment. ξ: configuration not given here. Actinocin(9to1) = Cc1c2oc3c(C)ccc(C(=O)[*:1])c3nc-2c(C(=O)[*:2])c(N)c1=O; X1 = N=C1NCCC([C@H](N[*:1])C(=O)[*:2])N1; ΔAla(Z-3-ureido) = NC(=O)N/C=C(\N)C(=O)O; NMeV = CN[C@H](C(=O)O)C(C)C; ξβ3hOrn = NCCCC(N)CC(=O)*; Dap = NC[C@H](N)C(=O)O; Sar = CNCC(=O)O

For the molecule `Fc1ccc([C@@H]2CCNC[C@H]2COc2ccc3c(c2)OCO3)cc1` [PAROXETINE], the Hepatotoxicity entry was “WE: Weak evidence (<10 case reports) of human hepatotoxicity”. Under `CNCCCN1c2ccccc2CCc2ccccc21` [DESIPRAMINE] stands “WE: Weak evidence (<10 case reports) of human hepatotoxicity”; under `CCN(CC)C(=O)/C(C#N)=C/c1cc(O)c(O)c([N+](=O)[O-])c1` [ENTACAPONE], “WE: Weak evidence (<10 case reports) of human hepatotoxicity”. Consider `CNC(=C[N+](=O)[O-])NCCSCc1ccc(CN(C)C)o1` [RANITIDINE], for which the Hepatotoxicity entry is recorded as “WE: Weak evidence (<10 case reports) of human hepatotoxicity”.

For the molecule `C[C@@H]1NC(=O)[C@@H](N)CNC(=O)[C@H](C2CCNC(=N)N2)NC(=O)/C(=C/NC(N)=O)NC(=O)[C@H](CNC(=O)CC(N)CCCN)NC1=O.N=C1NCCC([C@@H]2NC(=O)/C(=C/NC(N)=O)NC(=O)[C@H](CNC(=O)CC(N)CCCN)NC(=O)[C@H](CO)NC(=O)[C@@H](N)CNC2=O)N1.O=S(=O)(O)O.O=S(=O)(O)O` (stereo partly drawn) [CAPREOMYCIN SULFATE] (H-[Dap]S[Dap](ξβ3hOrn)[ΔAla(Z-3-ureido)][X1]; lactam 1-C), the Hepatotoxicity entry was “NE: No evidence of hepatotoxicity in any species”. Under `Nc1c(CC(=O)O)cccc1C(=O)c1ccc(Br)cc1` [BROMFENAC] stands “HH: Evidence of human hepatotoxicity”. Turning to `CN(C)[C@@H]1C(O)=C(C(N)=O)C(=O)[C@@]2(O)C(O)=C3C(=O)c4c(O)ccc(Cl)c4[C@@](C)(O)[C@H]3C[C@@H]12.Cl` [CHLORTETRACYCLINE HYDROCHLORIDE], the Hepatotoxicity entry is on record as “HH: Evidence of human hepatotoxicity”.

As to `NCC1(CC(=O)O)CCCCC1` [GABAPENTIN], the Hepatotoxicity entry was “NE: No evidence of hepatotoxicity in any species”.

Regarding `CS(=O)(=O)O.Cc1ccc(N(CC2=NCCN2)c2cccc(O)c2)cc1` [PHENTOLAMINE MESYLATE], the Hepatotoxicity result is reported as “HH: Evidence of human hepatotoxicity”. On to `Cc1ncc(C[n+]2csc(CCO)c2C)c(N)n1` [THIAMINE ION], for which the Hepatotoxicity entry is “NE: No evidence of hepatotoxicity in any species”.

As for LACTOSE, ANHYDROUS, the Hepatotoxicity result is “NE: No evidence of hepatotoxicity in any species”. For the molecule `CN(CCOc1ccc(CC2SC(=O)NC2=O)cc1)c1ccccn1` (stereo not drawn) [ROSIGLITAZONE], the Hepatotoxicity entry is listed as “WE: Weak evidence (<10 case reports) of human hepatotoxicity”. Regarding `Cl.Cl.O=C(CCN1CCN2CCCC2C1)N1c2ccccc2Sc2ccc(Cl)cc21` (stereo not drawn) [AZACLORZINE HYDROCHLORIDE], the Hepatotoxicity entry was “HH: Evidence of human hepatotoxicity”. On to `COc1ccc2cc([C@H](C)C(=O)O)ccc2c1` [NAPROXEN], for which the Hepatotoxicity entry is given as “WE: Weak evidence (<10 case reports) of human hepatotoxicity”.

On to `S=C=Nc1cccc2ccccc12` [1-NAPHTHYLISOTHIOCYANATE], for which the Hepatotoxicity entry is “HH: Evidence of human hepatotoxicity”. For `CCN(CC)CC(=O)Nc1c(C)cccc1C` [LIDOCAINE], the Hepatotoxicity entry is “NE: No evidence of hepatotoxicity in any species”. With `CCCN(CCC)S(=O)(=O)c1ccc(C(=O)O)cc1` [PROBENECID] the entry was “WE: Weak evidence (<10 case reports) of human hepatotoxicity”. Under `CC(C)c1nc(CN(C)C(=O)N[C@H](C(=O)N[C@@H](Cc2ccccc2)C[C@H](O)[C@H](Cc2ccccc2)NC(=O)OCc2cncs2)C(C)C)cs1` [RITONAVIR] stands “HH: Evidence of human hepatotoxicity”; under `O=C1C(CC[S+]([O-])c2ccccc2)C(=O)N(c2ccccc2)N1c1ccccc1` (stereo not drawn) [SULFINPYRAZONE], “HH: Evidence of human hepatotoxicity”; under `CN(C)[C@@H]1C(O)=C(C(N)=O)C(=O)[C@@]2(O)C(O)=C3C(=O)c4c(O)ccc(Cl)c4[C@@H](O)[C@H]3C[C@@H]12.Cl` [DEMECLOCYCLINE HYDROCHLORIDE], “HH: Evidence of human hepatotoxicity”.

Regarding `NCCBr` [BROMOETHANAMINE], the Hepatotoxicity entry is on record as “AH: Evidence for animal hepatotoxicity but not tested in humans”. With `Cl.N=C(N)NC(=O)c1nc(Cl)c(N)nc1N.O.O` [AMILORIDE HYDROCHLORIDE] the entry was “NE: No evidence of hepatotoxicity in any species”. With `CC(C)Cc1ccc(CC(=O)O)cc1` [IBUFENAC] the entry was “HH: Evidence of human hepatotoxicity”; with `O=P1(NCCCl)OCCCN1CCCl` (stereo not drawn) [IFOSFAMIDE], “HH: Evidence of human hepatotoxicity”. For the molecule POTASSIUM DICHROMATE, the Hepatotoxicity entry is recorded as “AH: Evidence for animal hepatotoxicity but not tested in humans”. For `Nc1ccc(S(=O)(=O)NC(=O)c2ccccc2)cc1` [SULFABENZAMIDE], the Hepatotoxicity result is recorded as “NE: No evidence of hepatotoxicity in any species”. Under `CN[C@H]1CC[C@@H](c2ccc(Cl)c(Cl)c2)c2ccccc21` [SERTRALINE] stands “WE: Weak evidence (<10 case reports) of human hepatotoxicity”; under `CN1C(C(=O)Nc2ccccn2)=C(O)c2ccccc2S1(=O)=O` [PIROXICAM], “HH: Evidence of human hepatotoxicity”; under `CC(=O)S[C@@H]1CC2=CC(=O)CC[C@]2(C)[C@H]2CC[C@@]3(C)[C@@H](CC[C@@]34CCC(=O)O4)[C@H]12` [SPIRONOLACTONE], “HH: Evidence of human hepatotoxicity”. With `Cc1c2oc3c(C)ccc(C(=O)N[C@@H]4C(=O)N[C@H](C(C)C)C(=O)N5CCC[C@H]5C(=O)N(C)CC(=O)N(C)[C@@H](C(C)C)C(=O)O[C@@H]4C)c3nc-2c(C(=O)N[C@@H]2C(=O)N[C@H](C(C)C)C(=O)N3CCC[C@H]3C(=O)N(C)CC(=O)N(C)[C@@H](C(C)C)C(=O)O[C@@H]2C)c(N)c1=O` [DACTINOMYCIN] (I: T[dV]P[Sar][NMeV] / II: T[dV]P[Sar][NMeV]; ester I:1-I:C, II:1-II:C; linker I:N-II:N via Actinocin(9to1)), the Hepatotoxicity entry was “HH: Evidence of human hepatotoxicity”. With `CN(C)CCCC1(c2ccc(F)cc2)OCc2cc(C#N)ccc21` (stereo not drawn) [CITALOPRAM] the entry was “WE: Weak evidence (<10 case reports) of human hepatotoxicity”.

As for `Oc1c(Cl)cc(Cl)c(Cl)c1Cc1c(O)c(Cl)cc(Cl)c1Cl` [HEXACHLOROPHENE], the Hepatotoxicity result is “HH: Evidence of human hepatotoxicity”. Under `Oc1ncnc2[nH]ncc12` [ALLOPURINOL] stands “HH: Evidence of human hepatotoxicity”; under `CC1CN(c2cc3c(cc2F)c(=O)c(C(=O)O)cn3-c2ccc(F)cc2F)CCN1` (stereo not drawn) [TEMAFLOXACIN], “HH: Evidence of human hepatotoxicity”; under `Nc1c2c(nc3ccccc13)CCCC2` [TACRINE], “AH: Evidence for animal hepatotoxicity but not tested in humans”.

For `CN(C)CCCN1c2ccccc2Sc2ccc(Cl)cc21` [CHLORPROMAZINE], the Hepatotoxicity result is “HH: Evidence of human hepatotoxicity”. Under `CCCCC(CC)COC(=O)C=Cc1ccc(OC)cc1` (stereo not drawn) [OCTINOXATE] stands “HH: Evidence of human hepatotoxicity”; under `C[C@H]1C[C@H]2[C@@H]3CCC4=CC(=O)C=C[C@]4(C)[C@@]3(F)[C@@H](O)C[C@]2(C)[C@@]1(O)C(=O)CO` [BETAMETHASONE], “NE: No evidence of hepatotoxicity in any species”; under `CCN(CC)CCNC(=O)c1cc(Cl)c(N)cc1OC.Cl`, “HH: Evidence of human hepatotoxicity”. `CCCCCCCCCCCCCCCC(=O)OC[C@@H](NC(=O)C(Cl)Cl)[C@H](O)c1ccc([N+](=O)[O-])cc1` [CHLORAMPHENICOL PALMITATE]: the Hepatotoxicity entry is reported as “HH: Evidence of human hepatotoxicity”. With `CO[C@H]1C[C@H](O[C@H]2[C@H](C)[C@@H](O[C@@H]3O[C@H](C)C[C@H](N(C)C)[C@H]3OC(C)=O)[C@@H](C)C[C@@]3(CO3)C(=O)[C@H](C)[C@@H](OC(C)=O)[C@@H](C)[C@@H](C)OC(=O)[C@@H]2C)O[C@@H](C)[C@@H]1OC(C)=O` [TROLEANDOMYCIN] the entry was “HH: Evidence of human hepatotoxicity”. Turning to `CN(C)CCC(c1ccc(Br)cc1)c1ccccn1.O=C(O)/C=C\C(=O)O` (stereo not drawn) [BROMPHENIRAMINE MALEATE], the Hepatotoxicity entry is listed as “NE: No evidence of hepatotoxicity in any species”. Regarding `Cn1c(=O)c2c(ncn2C)n(C)c1=O` [CAFFEINE], the Hepatotoxicity result was “NE: No evidence of hepatotoxicity in any species”. Under `Cc1c(F)c(N2CCNC(C)C2)cc2c1c(=O)c(C(=O)O)cn2C1CC1` (stereo not drawn) [GREPAFLOXACIN] stands “HH: Evidence of human hepatotoxicity”; under `CN[C@H](CC(C)C)C(=O)N[C@H]1C(=O)N[C@@H](CC(N)=O)C(=O)N[C@H]2C(=O)N[C@H]3C(=O)N[C@H](C(=O)N[C@H](C(=O)O)c4cc(O)cc(O)c4-c4cc3ccc4O)[C@H](O)c3ccc(c(Cl)c3)Oc3cc2cc(c3O[C@@H]2O[C@H](CO)[C@@H](O)[C@H](O)[C@H]2O[C@H]2C[C@](C)(N)[C@H](O)[C@H](C)O2)Oc2ccc(cc2Cl)[C@H]1O` [VANCOMYCIN], “HH: Evidence of human hepatotoxicity”. With `C[N+](C)(C)CCOP(=O)(O)OP(=O)([O-])OC[C@H]1O[C@@H](n2ccc(N)nc2=O)[C@H](O)[C@@H]1O` [CITICOLINE] the entry was “NE: No evidence of hepatotoxicity in any species”; with `Cl.N` [AMMONIUM CHLORIDE], “NE: No evidence of hepatotoxicity in any species”; with `C[C@H]1[C@H](NC(=O)/C(=N\OC(C)(C)C(=O)O)c2csc(N)n2)C(=O)N1S(=O)(=O)O` [AZTREONAM], “NE: No evidence of hepatotoxicity in any species”. With `CC(N/C(=N\C#N)Nc1ccncc1)C(C)(C)C` (stereo not drawn) [PINACIDIL ANHYDROUS], the Hepatotoxicity result is listed as “NE: No evidence of hepatotoxicity in any species”. Under `CC(=O)N1CCN(c2ccc(OCC3COC(Cn4ccnc4)(c4ccc(Cl)cc4Cl)O3)cc2)CC1` (stereo not drawn) [KETOCONAZOLE] stands “HH: Evidence of human hepatotoxicity”.

Consider `OC[C@@H](O)[C@@H](O)[C@H](O)[C@@H](O)CO` [SORBITOL], for which the Hepatotoxicity entry is on record as “NE: No evidence of hepatotoxicity in any species”. With `Cc1ccc(-c2nc3ccc(C)cn3c2CC(=O)N(C)C)cc1` [ZOLPIDEM] the entry was “WE: Weak evidence (<10 case reports) of human hepatotoxicity”; with `CN(C)CCn1nnnc1SCC1=C(C(=O)O)N2C(=O)[C@@H](NC(=O)Cc3csc(N)n3)[C@H]2SC1.Cl.Cl` [CEFOTIAM HYDROCHLORIDE], “HH: Evidence of human hepatotoxicity”.

These data come from ChEMBL document CHEMBL1697692, “Developing structure-activity relationships for the prediction of hepatotoxicity” (Chem Res Toxicol, 2010).
